{"source": "paper PMC12380353", "about": "“MK-8527 is a novel inhibitor of HIV-1 reverse transcriptase translocation with potential for extended-duration dosing” (PLOS Biology, 2025)", "key": {"[1]": {"biological_target": "T1, human mitochondrial DNA polymerase γ (Homo sapiens, UniProt P54098)", "T1 sequence (P54098 1-1239)": "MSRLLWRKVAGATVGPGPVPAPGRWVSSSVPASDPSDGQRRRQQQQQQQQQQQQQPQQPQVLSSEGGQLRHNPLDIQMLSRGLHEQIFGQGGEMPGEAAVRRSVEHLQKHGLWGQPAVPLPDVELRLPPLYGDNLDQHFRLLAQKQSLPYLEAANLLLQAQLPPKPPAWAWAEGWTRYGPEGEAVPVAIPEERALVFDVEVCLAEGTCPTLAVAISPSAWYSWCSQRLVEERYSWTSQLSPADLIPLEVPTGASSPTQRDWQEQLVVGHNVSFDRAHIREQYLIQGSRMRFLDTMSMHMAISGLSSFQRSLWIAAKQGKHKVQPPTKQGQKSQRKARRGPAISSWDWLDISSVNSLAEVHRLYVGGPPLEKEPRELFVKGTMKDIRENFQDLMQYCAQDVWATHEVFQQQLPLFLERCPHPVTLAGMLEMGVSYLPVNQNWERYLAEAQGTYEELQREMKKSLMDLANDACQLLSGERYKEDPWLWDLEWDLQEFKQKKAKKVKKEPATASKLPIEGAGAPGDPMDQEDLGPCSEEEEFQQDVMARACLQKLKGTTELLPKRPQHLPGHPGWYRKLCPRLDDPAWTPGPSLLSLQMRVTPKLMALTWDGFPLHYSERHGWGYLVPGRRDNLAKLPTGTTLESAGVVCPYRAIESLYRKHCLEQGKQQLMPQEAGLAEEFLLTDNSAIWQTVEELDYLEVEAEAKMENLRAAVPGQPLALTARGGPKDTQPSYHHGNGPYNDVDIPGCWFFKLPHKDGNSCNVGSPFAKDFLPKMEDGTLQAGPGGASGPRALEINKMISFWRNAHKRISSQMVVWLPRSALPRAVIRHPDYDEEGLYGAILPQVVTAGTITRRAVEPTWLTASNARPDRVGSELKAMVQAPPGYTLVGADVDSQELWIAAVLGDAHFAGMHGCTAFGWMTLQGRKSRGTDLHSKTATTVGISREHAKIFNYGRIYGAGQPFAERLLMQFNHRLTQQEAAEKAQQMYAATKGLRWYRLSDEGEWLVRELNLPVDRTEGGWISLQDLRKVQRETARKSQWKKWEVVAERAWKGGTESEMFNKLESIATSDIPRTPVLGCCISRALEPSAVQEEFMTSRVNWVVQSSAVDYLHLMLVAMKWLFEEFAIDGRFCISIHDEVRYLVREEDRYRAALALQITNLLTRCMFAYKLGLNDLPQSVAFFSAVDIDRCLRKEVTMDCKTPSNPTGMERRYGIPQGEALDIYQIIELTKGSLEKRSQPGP", "assay": "Human mitochondrial DNA polymerase γ inhibition assay", "format": "biochemical", "details": "highest concentration tested 200 µM", "description": "The activities of human DNA polymerases α, β, and γ were measured in radiolabeled nucleotide incorporation assays. TP was prepared as a 10-point titration with 3-fold serial dilution in water. Reaction buffers for the DNA polymerase α and β assays both contained 20 mM Tris pH 7.5, 10 mM MgCl2, 50 μM EDTA, 200 μg/mL bovine serum albumin (BSA), 2 mM dithiothreitol (DTT), 1.6 μM each of dNTP (dATP, dCTP, dGTP, and dTTP), 20 μCi/mL [α33P]dATP, 0.1 mg/mL gapped activated fish sperm DNA template, test compound, and 0.005 U/μL DNA polymerase α or 0.0025 U/μL DNA polymerase β. The reaction buffer for DNA polymerase γ contained 20 mM Tris pH 8, 10 mM MgCl2, 50 mM KCl, 100 μg/mL BSA, 2 mM β-mercaptoethanol, 10 μM of each dNTP (dATP, dCTP, dGTP, and dTTP), 20 μCi/mL [α33P]dATP, 0.04 mg/mL gapped activated fish sperm DNA template, test compound, and 0.0003 μg/μL DNA polymerase γ. The 50-μL reactions were incubated at room temperature for 30 min (for β and γ) or 90 min (for α) before terminating with the addition of 50 μL 500 mM EDTA. The reaction mixtures were transferred to a Millipore DE81 filter plate (EMD Millipore; Hayward, CA), washed with 0.5 M sodium phosphate pH 7.0, and dried. After addition of 40 μL scintillant to each well, the incorporation of labeled dATP was determined with a microplate counter (TopCount NXT HTS; PerkinElmer, Shelton, CA, USA)."}, "HIV-1 RT": {"biological_target": "T2, HIV-1 RT (Human immunodeficiency virus type 1 group M subtype B, UniProt P04585)", "T2 construct": "Full-length WT RT protein was expressed in Escherichia coli BL21(DE3) cells; made in house; host or cells: Escherichia coli BL21(DE3)", "assay": "HIV-1 RT biochemical (ECL) assay", "details": "purified recombinant RT, n = 8; read-out: IC50, RNA-dependent DNA polymerization", "description": "Full-length WT RT protein was expressed in Escherichia coli BL21(DE3) cells and purified as described previously. The electrochemiluminescence (ECL) RT biochemical assay was performed based on the previously described protocol.\nBriefly, the heterodimeric nucleic acid substrate used in the HIV-1 RT polymerase reactions was generated by annealing biotinylated DNA primer to a 500-nucleotide RNA template. The HIV-1 RT enzyme (final concentration of 50 pM) was combined with an inhibitor or DMSO (10% DMSO in the final reaction mixture) in assay buffer containing 62.5 mM Tris-HCl, pH 7.8, 1.25 mM dithiothreitol, 7.5 mM MgCl2, 100 mM KCl, 0.03% 3-[(3-cholamidopropyl)-dimethylammonio]-1-propanesulfonate, and 0.125 mM ethylene glycol tetraacetic acid). This mixture was preincubated for 30 min at room temperature in microtiter plates. The polymerization reaction was initiated by the addition of template:primer substrate (final concentration, 16.6 nM), and dNTPs (final concentrations were 2 μM for deoxycytidine triphosphate [dCTP], deoxyguanosine triphosphate [dGTP], and dATP and 66.6 nM for ruthenylated deoxyuridine triphosphate [Ru-dUTP]). […] The mixtures were incubated at room temperature for 60 min prior to the quantification of the reaction product via an ECL 6000 imager instrument. […]"}}, "data": [{"smiles": "C#C[C@]1(COP(=O)(O)OP(=O)(O)OP(=O)(O)O)O[C@@H](n2ccc3c(N)nc(Cl)nc32)C[C@@H]1O", "note": "[MK-8527-TP]", "values": [{"measurement": "Inhibitory activity", "setting": "[1]", "value": "no inhibitory activity"}, {"measurement": "IC50", "setting": "HIV-1 RT", "value": "813 ± 238", "unit": "nM"}]}]}
